# According to US8936941B2, “Compositions useful for cancer detection and treatment, a cancer stem cell model, and methods of production and use thereof” (priority 2008, dated 2015):
# Entries after “also recorded” stand apart in the source; their conditions may differ.
# Columns and labels:
# [1] = tested on: PICSCs; test: Growth and survival of PICSCs after drug treatment; type: cell-based, mouse
# Protocol: The PICSCs cells were treated with 100 μM drug (suprapharmacological dose) for 48 hours, and their growth and survival were evaluated. […] Moreover, the in vitro testing strategies allows for a mechanistic study of such compounds.
# [2] = tested on: PICSCs; test: LIVE/DEAD Viability/Cytotoxicity Assay on PICSCs; type: cell-based, mouse; conditions: 48 hours, single agent
# Protocol: This Example is directed to stem cell assays utilizing PICSCs generated in accordance with the presently disclosed and claimed inventive concept(s). The PICSCs were generated as described herein above (i.e., transformation of NIH-3T3 cells with RBM3 gene, followed by transplantation into a nude mouse, then sorting of cells obtained from generated tumors utilizing DCAMKL-1).
# The PICSCs were exposed to various compounds/anti-cancer agents, and cell viability assays were then performed using the LIVE/DEAD® Viability/Cytotoxicity Assay from Molecular Probes/Invitrogen (Eugene, Oreg.). The LIVE/DEAD® Viability/Cytotoxicity Assay is an assay that provides a two-color fluorescence cell viability that is based on the simultaneous determination of both live and dead cells.
# Briefly, PICSCs cells were grown in a 96 well microtitre plate ([…], Newton, N.C.) to about 40% confluency and treated with anti-cancer agents/compounds for 48 hours. Subsequently, chromogenic substrates Calcein AM and Ethidium homodimer-1 (EthD-1) was added to the cells. Calcein AM is well retained within the live cells, producing uniform green fluorescence in live cells (measured at 515 nM). EthD-1 enters cells with damaged membranes and undergoes an enhancement of fluorescence upon binding to nucleic acids, thereby producing a bright red fluorescence in dead cells (measured at 617 nM). The fluorescence measurement was carried out using a microtitre plate reader (Synergy HT, BIO-TEK, Vinooski, Vt.).
# In FIGS. 70-84, the PICSCs were treated with increasing concentrations of various compounds or combinations of compounds for 48 hours, and the data presented therein is represented as a % Dead/Live cells ratio following said treatment. […] Values in each figure are given as average±Standard Error Mean, and asterisks denote statistically significant differences (*p<0.01) compared with control.
# [3] = tested on: PICSC tumor xenografts; test: PICSC generated isograft tumor growth in mice; type: in vivo; conditions: mouse, in vivo
# Protocol: To determine whether targeted DCAMKL-1 downregulation and/or Notch inhibition affected […] generated isograft tumor growth, mice were treated with siRNA to DCAMKL-1 or the Notch inhibitor DAPT. After the tumors were allowed to develop (15 days), siRNA was injected a total of 5 times at an interval of 3 days as described earlier.
# [4] = tested on: HCT116 tumor xenografts; test: HCT116 tumor xenograft model in athymic nude mice, intratumoral treatment; type: in vivo; conditions: HCT 116-induced tumor xenograft, via induction of apoptosis
# Excerpt: Real-time reverse transcription-PCR analyses. Total RNA isolated either from cells or from human colon cancer cell tumor xenograft samples was subjected to reverse transcription with Superscript™ II RNase H—Reverse Transcriptase and random hexanucleotide primers (Invitrogen, Carlsbad, Calif.). The cDNA was subsequently used to perform Real-time PCR by SYBR chemistry (SYBR® Green I; Molecular Probes) for specific transcripts using gene specific primers and Jumpstart Taq DNA polymerase (Sigma-Aldrich, St. Louis, Mo.). […] The changes in mRNA were expressed as fold change relative to control with ±SEM value.
# miRNA analysis. Total miRNA was isolated using mirVana™ miRNA isolation kit (Ambion Inc.). Total miRNA isolated either from cells or from human colon cancer cell tumor xenograft samples were subjected to reverse transcription with Superscript™ II RNase H—Reverse Transcriptase and random hexanucleotide primers (Invitrogen, Carlsbad, Calif.). The cDNA was subsequently used to perform Real-time PCR by SYBR chemistry (SYBR® Green I; Molecular Probes) for pri-let-7a transcript using specific primers and Jumpstart Taq DNA polymerase (Sigma-Aldrich, St. Louis, Mo.). […] The changes in pri-miRNA were expressed as fold change relative to control with ±SEM value. Primers used are: […]
# Western Blot analysis. HCT116 and SW480 cells were cultured in a 6 well plates to 40% confluency and were transfected with si-DCAMKL-1 or si-Scr for 72 h. Cells or the tumor xenograft samples were lysed and the concentration of protein was determined by BCA protein assay kit (Pierce Biotechnology Inc., Rockford, Ill.). […] The membrane was blocked in 5% non-fat dry milk for 1 h and probed overnight with a rabbit anti-DCAMKL-1 antibody (Abcam Inc., Cambridge, Mass.) or with rabbit anti-c-Myc antibody (Santa Cruz). Subsequently, the membrane was incubated with anti-rabbit or anti-goat IgG horseradish peroxidase-conjugated antibodies (Amersham-Pharmacia) for 1 h at room temperature. The 82 kDa DCAMKL-1 and 49 kDa c-Myc proteins were detected using ECL™ Western Blotting detection reagents (Amersham-Pharmacia). Actin (43 kDa), used as loading control was identified using a goat polyclonal IgG (Santa Cruz Biotechnology Inc., Santa Cruz, Calif.).
# Immunohistochemistry. Heat Induced Epitope Retrieval was performed on 4 μm formalin-fixed paraffin-embedded sections utilizing a pressurized Decloaking Chamber (Biocare Medical) in citrate buffer (pH 6.0) at 99° C. for 18 min. (a) Brightfield: Slides were incubated in 3% hydrogen peroxide, then normal serum and BSA at room temperature for 20 min. After incubation with primary antibody [DCAMKL-1 C-terminal (Abcam), anti-c-Myc (Santa Cruz Biotechnologies), L-FABP (Santa Cruz Biotechnologies)], the slides were incubated in peroxidase-conjugated EnVision™+polymer detection kit (DAKO). Slides were developed with Diaminobenzidine (Sigma). (b) Fluorescence: Slides were first incubated in Image-iT FX signal enhancer (Invitrogen), followed by normal serum and BSA at room temperature for 20 min.
# Xenograft tumor model. (a) Liposomal preparation: siRNA was administered into the xenografts after incorporation into 1,2-Dioleoyl-sn-Glycero-3-Phosphocholine (DOPC) (Avanti Polar Lipids, Alabaster, Ala.). DOPC and siRNA were mixed in the presence of excess tertiary butanol at a ratio of 1:10 (w/w) (siRNA/DOPC). Tween 20 (Sigma-Aldrich) was added to the mixture at a ratio of 1:19 Tween 20:siRNA/DOPC. The mixture was vortexed and frozen in an acetone/dry ice bath and lyophilized. Before administration, the siRNA preparation was reconstituted in 0.9% sterile saline and injected at a dose of 50 μl (5 μM) per injection. (b) Tumor therapy: Female athymic nude mice (NCr-nu) were purchased from the National Cancer Institute-Frederick Cancer Research and Development Center (Frederick, Md.) and housed in specific pathogen-free conditions.
# [5] = tested on: Pdx1-Cre; LSL-KRAS^G12D; p53^lox/+ mouse model of pancreatic neoplasia; conditions: inhibition of Notch signaling; cited from earlier work
# [6] = tested on: HCV subgenomic replicon; test: HCV replication in GS5 cells (Huh7.5 with HCV subgenomic replicon); type: cell-based, hepatitis C virus; conditions: disruption of microtubules
# Protocol: FIG. 61 illustrates that DCAMKL-1 is required for the HCV replication. A. siRNA against DCAMKL-1 (Si-DCAMKL1, 50 nM and 100 nM) or scrambled siRNA (SCR, 100 nM) were transfected into GS5 cells. Total RNAs were extracted and subjected to real-time quantitative PCR. The levels of HCV and DCAMKL-1 RNAs were considered arbitrary as one unit in untransfected GS5 cells (Cont). Actin mRNA in each sample was used as internal control for PCR. B. Western blot analysis of siRNAs tranfected and untransfected samples as indicated.
# Induction of putative stem cell/pluripotency factors by HCV: Normal adult hepatocytes are fully differentiated cells and lack expression of pluripotency factors. However, these cells can be induced to proliferate rapidly after partial hepatectomy and can also be reprogrammed into stem-like cells by forced expression of a cocktail of transcription factors. Thus, the impact of HCV on expression pattern of stem/progenitor cell markers was investigated in GS5 cells, which are derived from hepatoma cell line (Huh7.5) and support constitutive replication of a subgenomic HCV replicon under G418 selection. The replicon expresses HCV nonstructural proteins NS3 through NS5B of the HCV-1a strain and green florescent protein (GFP)-NS5A chimera. Total lysates from parent Huh7.5 and GS5 cells were subjected to Western blot analysis (FIG. 59).
# Putative intestinal stem cell marker DCAMKL1 is required for the HCV replication: The eccentric, punctate staining of HCV replication complexes consisting of most of the nonstructural proteins and cellular factors has been a puzzling question. It is known that these replication complexes associate with microtubules in order to replicate the HCV RNA. The DCAMKL1 protein, which binds and polymerizes tubulin into microtubule filaments, is considered as a putative marker for quiescent stem cells in the intestine, and its expression is increased in cancer stem cells. During confocal microscopy, most DCAMKL1 localization was consistently observed in the area containing replication complexes (indicated by NS5A-GFP) and high concentration of microtubules (FIG. 60). The perinuclear co-localization of DCAMKL1 with the NS5A-GFP (indicated by yellow stain) was also observed.
structure (smiles),measurement,setting,value
"CCc1c2c(nc3ccc(OC(=O)N4CCC(N5CCCCC5)CC4)cc13)-c1cc3c(c(=O)n1C2)COC(=O)[C@]3(O)CC [CPT-11, Irinotecan]",growth and survival of PICSCs,"[1]; 100 μM drug, 48 hours",no significant effect
same,PICSC cell death (% Dead/Live cells ratio),[2],no cell death
N.N.[Cl][Pt][Cl] [Cisplatin],PICSC cell death (% Dead/Live cells ratio),[2],increasing levels of PICSC cell death
C[C@H](NC(=O)Cc1cc(F)cc(F)c1)C(=O)N[C@H](C(=O)OC(C)(C)C)c1ccccc1 [DAPT],anti-CSC growth properties,[3],potent anti-CSC growth properties
same,PICSC cell death (% Dead/Live cells ratio),[2],increasing levels of PICSC cell death
"O=C1C(=Cc2ccccc2F)CNCC1=Cc1ccccc1F [EF24, 3,5-bis(2-fluorobenzylidene)piperidin-4-one]",anti-CSC growth properties,[3],potent anti-CSC growth properties
same,tumor xenograft growth,[4],significantly inhibited
same,"neurite formation, cell growth and cell death of PICSCs",[1]; 1 μM,"inhibited neurite formation, suppressed cell growth and induced cell death"
same,PICSC cell death (% Dead/Live cells ratio),[2],increasing levels of PICSC cell death
Nc1ccn([C@@H]2O[C@H](CO)[C@@H](O)C2(F)F)c(=O)n1 [Gemcitabine],PICSC cell death (% Dead/Live cells ratio),[2],significant increase in PICSC cell death
O=S1(=O)N[C@@]2(CN1CC(F)(F)F)[C@@H]1CC[C@H]2Cc2ccc(/C=C/CN3CCC(C(F)(F)F)CC3)cc2C1 [MRK-003],tumor development,[5],completely inhibited tumor development; also recorded: completely blocked tumor development
COc1cc(/C=C/C(=O)CC(=O)/C=C/c2ccc(O)c(OC)c2)ccc1O [curcumin],"neurite formation, cell growth and cell death of PICSCs",[1]; 30 μM,"inhibited neurite formation, suppressed cell growth and induced cell death"
OO [hydrogen peroxide],PICSC cell death (% Dead/Live cells ratio),[2],complete cell death
"CC[C@]1(O)C[C@@H]2CN(CCc3c([nH]c4ccccc34)[C@@](C(=O)OC)(c3cc4c(cc3OC)N(C)[C@H]3[C@@](O)(C(=O)OC)[C@H](OC(C)=O)[C@]5(CC)C=CCN6CC[C@]43[C@@H]65)C2)C1 [vinblastin, reference compound]",HCV replication,[6],inhibition
